Laboratory results: patent US7893108B2, “Antiviral methods and compositions” (priority 2004, dated 2011)
Values joined by “and” are separate entries in the source; they are usually repeats but may differ in a detail not shown here. Equal values may be shown once. Read-outs that look alike come from different tables or passages of the source.

Tests used:
[1] = biological target: T1, UL54 plus GST-UL44ΔC290 (Human cytomegalovirus, UniProt P16790); assay: long-chain DNA synthesis by UL54 in the presence of UL44; type: biochemical, HCMV; details: dose-response
T1 construct: GST-UL44ΔC290 fusion protein, which contains the N-terminal 290 residues of HCMV UL44; made in house; host or cells: UL54: in vitro transcription/translation; GST-UL44ΔC290: E. coli BL21 (DE3)pLysS
T1 sequence (P16790 1-290, stated change not applied): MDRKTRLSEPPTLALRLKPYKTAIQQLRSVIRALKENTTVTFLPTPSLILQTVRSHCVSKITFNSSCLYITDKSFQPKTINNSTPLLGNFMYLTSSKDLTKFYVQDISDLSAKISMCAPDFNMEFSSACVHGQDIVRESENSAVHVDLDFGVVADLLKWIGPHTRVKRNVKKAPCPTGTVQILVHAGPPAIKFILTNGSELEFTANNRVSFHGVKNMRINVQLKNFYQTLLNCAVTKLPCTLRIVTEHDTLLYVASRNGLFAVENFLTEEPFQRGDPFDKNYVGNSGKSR
Procedure: To analyze the ability of the compounds to interfere with functional UL54-UL44 interactions, we tested their ability to inhibit long-chain DNA synthesis by UL54 in the presence of UL44 employing a poly(dA)-oligo(dT)12-18 template-primer.
DNA polymerase assays. The effects of compounds were tested in an assay that measures long-chain DNA synthesis as described in Loregian et al. (Loregian et al., 2004a), with 5 μl of in vitro-transcribed and -translated UL54 plus 800 fmol of GST-UL44ΔC290 in the absence or in the presence of various amounts of each compound.
The effect of the compounds was also tested in an assay that measures long chain (Lc) DNA synthesis as described in Loregian et al., J. Virol. […]

[2] = biological target: T2, GST-UL44ΔC290 / UL54-derived peptide interaction (Human cytomegalovirus, UniProt P16790); assay: biochemical; type: binding, HCMV; details: 2.5 μM GST-UL44ΔC290 and 3 nM labeled peptide
T2 construct: GST-UL44ΔC290 fusion protein, which contains the N-terminal 290 residues of HCMV UL44; made in house; host or cells: E. coli BL21 (DE3)pLysS
T2 sequence (P16790 1-290, stated change not applied): as above
Text: To identify small molecule inhibitors of the UL54-UL44 interaction, we developed an assay based on fluorescence polarization (FP) (Dandliker et al., 1981). In this assay, a peptide corresponding to the C-terminal 22 residues of UL54 (here named peptide 1, as in Loregian et al. (Loregian et al., 2003)), which was labeled with the fluorophore Oregon Green, is mixed with UL44ΔC290, a truncated protein which retains all known biochemical activities of full-length UL44 (Loregian et al., 2004b), fused to glutathione S-transferase (GST-UL44ΔC290).
We next investigated whether this assay could detect a known inhibitor of the UL54-UL44 interaction. To this end, a binding reaction of 2.5 μM GST-UL44ΔC290 and 3 nM labeled peptide was titrated with increasing concentrations of unlabeled peptide 1 (FIG. 4B).
FP assays. Unless otherwise indicated, […] of Oregon Green-labeled peptide 1 was added to 2.5 μM GST-UL44ΔC290 in 50 mM Tris-HCl (pH 7.5), 2 mM dithiothreitol, 0.5 mM EDTA, 150 mM NaCl, 4% glycerol and 100 μg/ml bovine serum albumin and kept on ice until the mix was distributed into black 384-well plates (Nunc) in a total volume of 40 μl per well. For high throughput screening, small molecules (5 mg/ml in DMSO) of the Maybridge, Bionet, Peakdale, ChemDiv, and Chembridge Microformat libraries were obtained from the ICCB, and 100 nl of each compound were transferred to individual wells using 384-pin arrays. All compounds were tested in duplicate. As controls, reaction mixtures containing either labeled peptide 1 only, or GST-UL44ΔC290 plus labeled peptide 1 (no compound), or GST-UL44ΔC290 plus labeled peptide 1 in the presence of 3 μM or 20 μM of unlabeled peptide 1, were included on each screening plate. After 15-min incubation at room temperature, FP values were determined by using an Analyst plate reader (LJL Biosystems) at the ICCB.
A fluorescence polarization (FP) assay was used to identify compounds that inhibit HCMV polymerase subunit interactions. Compounds from the Harvard Institute of Chemistry and Cell Biology (ICCB, Harvard Medical School) were screened as follows. 3 nM of a synthetic peptide corresponding to the C-terminal 22 residues of HMCV UL54 (termed peptide 1 in Loregian et al., J. Virol. 2003, 77:8336-8344) and N-terminally labeled with Oregon Green was added to 2.5 μM GST-UL44ΔC290 in 50 mM Tris-HCl (pH 7.5), 2 mM DTT, 0.5 mM EDTA, 150 mM NaCl, 4% Glycerol and 100 μg/ml bovine serum albumin and kept on ice until the mix was distributed into black 384-well plates (Nunc) in a total volume of 40 μl per well. […] After 5-min incubation at room temperature, the FP values were determined by using an Analyst plate reader (LJL Biosystems) at the ICCB. […]

[3] = system: HFF cells; assay: XTT cytotoxicity assay; type: cell-based, human
Procedure: Cytotoxicity assays. HFF cells were seeded at 2×10^4, 4×10^3, or 10^3 cells per well into 96-well plates and, after a 3-hr incubation to allow cell attachment, were treated for 24, 72, or 120 hr, respectively, with various concentrations of each compound in duplicate. Cell viability was then determined with an XTT assay (Roche Molecular Biochemicals) according to the manufacturer's protocol by using a Victor plate reader (Wallac).
The cytotoxicity of the compounds was measured in an XTT assay. XTT is a compound that is converted to a product that can be measured […], but only by viable cells. This assay is as follows. HFF (human foreskin fibroblasts) cells were seeded at different concentrations into 96-well plates and treated with various concentrations (from 0 to 200 μM) of each compound in duplicate for 24, 72 or 120 hr. Cell viability was then determined with an XTT assay (Roche Molecular Biochemicals) according to the manufacturer's protocol by using a Victor plate reader (Wallac).

[4] = system: HCMV strain AD169; assay: plaque reduction assay; type: cell-based, human cytomegalovirus; details: HFF cells; 0-30 μM
Procedure: Antiviral assays. Plaque reduction assays were performed essentially as follows: HFF (human foreskin fibroblast) cells were seeded at 2×10^5 cells per well in 24-well cluster dishes. The next day, cells were infected with HCMV (strain AD169) at 80 PFU per well in DMEM plus 5% fetal bovine serum (FBS) at 37° C. Two hours post-infection, the inocula were removed, cells were washed, and media containing various drug dilutions, 5% FBS, and 0.6% methylcellulose were added. All drug dilutions were tested at least in duplicate. After incubation at 37° C. for 10-11 days, cell monolayers were stained with crystal violet and plaques were counted under light microscopy.
The effect of the compounds was assessed in a plaque reduction assay that measures the number of plaques formed in the presence of varying concentrations of a drug, as follows. HFF were seeded at 2×10^5 cells per well in 24-well cluster dishes. The next day, they were infected with HCMV AD169 at 80 PFU per well in DMEM plus 5% FBS at 37° C. Two hr post-infection, the inocula were then removed, cells were washed, and media containing selected drug dilutions (0, 0.1, 0.3, 1, 3, 10, 30 μM), and 5% FBS and 0.6% methylcellulose were added. All drug dilutions were tested at least in duplicate. After incubation at 37° C. for 10-11 days, cell monolayers were stained with crystal violet and plaques were enumerated under light microscopy.

[5] = system: HCMV AD169; assay: virus yield reduction assay; type: cell-based, human cytomegalovirus
Procedure: Next, we tested the effects of selected compounds and of GCV as a control in viral yield assays, which measure the titer of virus progeny produced following infection at relatively high multiplicity. In these assays, the viral titer was measured at two different times points post-infection (p.i.): at 96 hrs, when the release of virus progeny is increasing, and at 120 hrs, when the titer of virus progeny after a single cycle of replication reaches peak levels (Stinski, 1983).
(§1) For yield reduction assays, HFF cells were plated at 2×10^4 cells per well in 96-well cluster dishes, incubated overnight, and infected with HCMV AD169 at a multiplicity of infection (MOI) of 1. After virus adsorption for 2 hr at 37° C., cells were washed and incubated with 200 μl of fresh media containing test compounds at increasing drug concentration. Plates were incubated for 3 or 5 days at 37° C. and subjected to one cycle of freezing and thawing, and titers were determined by transferring 100-μl aliquots from each of the wells to a fresh 96-well monolayer culture of HFF cells followed by 1:5 serial dilution across the plate. Cultures were incubated for 7 days, cells were stained, and the numbers of plaques were determined as described above.
as §1, with “The effect of the compounds was assessed in an assay of virus yield. In this assay, cells are infected at a relatively high multiplicity of infection (about one per cell) and then drug is added. The virus produced at the different times post infection is measured. 120 hrs. is about the peak titer. This assay was conducted as follows.” for “For yield reduction assays,”, “20,000” for “2×10^4”, “an MOI” for “a multiplicity of infection (MOI)”, “0.1, 0.3, 1, 3, 10, 30 μM” for “increasing”

[6] = biological target: T3, full-length UL54 / UL44 interaction (Human cytomegalovirus, UniProt P16790); assay: UL54-UL44 interaction ELISA; type: binding, HCMV; details: concentrations up to 200 μM
T3 construct: made in house; host or cells: baculovirus expression; proteins provided by H. S. Marsden (Institute of Virology, Glasgow)
T3 sequence (P16790 whole entry): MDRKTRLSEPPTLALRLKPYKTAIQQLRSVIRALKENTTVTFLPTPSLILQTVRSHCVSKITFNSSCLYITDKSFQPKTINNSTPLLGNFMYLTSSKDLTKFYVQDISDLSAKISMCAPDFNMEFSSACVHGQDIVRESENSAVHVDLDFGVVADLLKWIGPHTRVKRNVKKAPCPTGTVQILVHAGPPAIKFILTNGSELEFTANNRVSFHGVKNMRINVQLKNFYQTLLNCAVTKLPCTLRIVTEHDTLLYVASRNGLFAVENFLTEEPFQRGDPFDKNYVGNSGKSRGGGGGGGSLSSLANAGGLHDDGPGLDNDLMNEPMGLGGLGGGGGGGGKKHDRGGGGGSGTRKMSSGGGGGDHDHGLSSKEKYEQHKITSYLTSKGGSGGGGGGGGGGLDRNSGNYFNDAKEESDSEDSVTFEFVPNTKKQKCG
Procedure: In this assay, binding between purified baculovirus-expressed UL54 and UL44, which was tagged with an EEF epitope, was detected using an antibody that recognizes the epitope tag (Loregian et al., 2003).
UL54-UL44 interaction ELISA. This assay was conducted as described in (Loregian et al., 2003), testing various concentrations of each compound. After final washes, the chromogenic substrate 2,2′-azino-bis(3-ethylbenzothiazoline-6-sulphonic acid (ABTS, Pierce) in citrate phosphate buffer (pH 4.0) containing 0.01% hydrogen peroxide was added and absorbance was read at 405 nm on a Victor plate reader (Wallac).
Another assay that was used to test the effect of the compounds on the interaction of UL44 and UL54 is an ELISA interaction assay, which measures the interaction of the two full length proteins with each other. This assay was conducted as described in Loregian et al., J. Virol. 2003, 77:8336-8344, testing different concentrations (0, 3.12, 6.25, 12.5, 25, 50, 100, 200 μM) of each compound.

[7] = IC50 for inhibition of FP (UL44-UL54 peptide interaction)
[8] = read-out: IC50 for inhibition of FP (UL44-UL54 peptide interaction)

For `Cc1ccc(-c2nc3nc(-c4ccc(Br)cc4)cn3nc2-c2ccc(C)cc2)cc1` [AL8], the “inhibition of long-chain DNA synthesis by UL54 and UL44” value (“inhibition of long-chain DNA synthesis” below) [1] was “inactive” and the IC50 [2, 7] was < 50 µM and 5 to 30 µM.

For `CCN1C=CC(=CC=Cc2ccc3ccccc3[n+]2CC)c2ccccc21` [AL10], the IC50 [2, 7] was < 50 µM and 5 to 30 µM and the “cytotoxicity” value [3] was “significant cytotoxicity”.

For `CNC(=S)NN=Cc1ccc(OC)c(Br)c1` [AL20], the “IC50s in plaque reduction assay” value [4] was “relatively low IC50s”, the “inhibition of long-chain DNA synthesis” value [1] was “little or no inhibition” and the “effect on virus yield / HCMV replication” value [5] was “relatively low IC50s”. For the same compound, the “cytotoxic concentration relative to antiviral concentration” value [3] was 7-500 fold, the “cytotoxicity” value [3] was “relatively high CC50's” and the “inhibition of the UL54-UL44 physical interaction” value [6] was “did not significantly inhibit”.

For `CNC(=S)NN=Cc1cc(Br)ccc1O` [AL14], the “cytotoxicity” value [3] was “significant cytotoxicity”.

In the case of `CN(C)c1ccc2nc3c(=O)[nH]c(=O)[nH]c3nc2c1` [AL13], the IC50 [2, 8] is reported as 50 µM and the “cytotoxicity” value [3] is reported as “significant cytotoxicity”.

With `CCn1c2ccccc2c2cc3cc4ccccc4cc3cc21` [AL11] the “cytotoxicity” value [3] was “significant cytotoxicity”.

In the case of `COc1ccccc1C=C1N=C(c2ccc(OC)c(OC)c2)N(c2cccc(F)c2)C1=O` [AL6], the “cytotoxicity” value [3] is reported as “significant cytotoxicity”.

For `CCOc1cc(C2C(C#N)=C(N)Oc3n[nH]c(-c4ccc(Cl)cc4)c32)cc([N+](=O)[O-])c1O` (centres unmarked) [AL3], the “inhibition of long-chain DNA synthesis” value [1] was “little or no inhibition”, the “effect on virus yield / HCMV replication” value [5] was “little or no effect” and the “inhibition of the UL54-UL44 physical interaction” value [6] was “did not significantly inhibit”.

`O=C1c2cccc3c([N+](=O)[O-])ccc(c23)C(=O)N1Cc1cccnc1` [AL19] was tested, and the “cytotoxicity” value [3] was “significant cytotoxicity”.

With `CCOc1cc(C2C(C#N)=C(N)Oc3n[nH]c(-c4cc(OC)c(OC)c(OC)c4)c32)cc([N+](=O)[O-])c1O` (centres unmarked) [AL4] the “effect on virus yield / HCMV replication” value ([5]; HFF cells) was “little or no effect”.

In the case of `CCOc1cc(C2C(C#N)=C(N)Oc3n[nH]c(-c4ccccc4)c32)cc([N+](=O)[O-])c1O` (centres unmarked) [AL1], the “inhibition of long-chain DNA synthesis” value [1] is reported as “little or no inhibition” and the “effect on virus yield / HCMV replication” value [5] is reported as “little or no effect”.

With `O=C1CC(=O)c2c1cccc2[N+](=O)[O-]` [AL15] the IC50 [2, 8] was 60 µM.
